{"source": "patent EP1543827A1", "about": "“EMULSION OF PERFLUORORGANIC COMPOUNDS EXHIBITING GAS-TRANSPORT PROPERTIES, A SURFACE-ACTIVE AGENT FOR SAID EMULSION AND METHOD FOR THE PRODUCTION THEREOF” (Obshestvo C Ogranichennoi Otvetstvennostiu Accent, priority 2002, dated 2004)", "origin": "cited, not measured here", "details": "in vivo", "data": [{"compound": "FC(F)(F)C1(F)C(F)(F)C(F)(F)C(F)(N2C(F)(F)C(F)(F)C(F)(F)C(F)(F)C2(F)F)C(F)(F)C1(F)F", "note": "(centres unmarked) [PMCP, perfluoro-n-methylcyclohexylpiperidine]", "values": [{"measurement": "period of PFOC semi-clearance out of the organism", "result": 65, "unit": "days"}]}, {"compound": "perfluordecalin [PFD]", "values": [{"measurement": "period of PFOC semi-clearance out of the organism", "result": 7, "unit": "days"}]}]}
